Test results taken from patent US20170320939A1, “COLL2-1 PEPTIDE AND ITS NITRATED FORM AS THERAPEUTIC TARGETS FOR OSTEOARTHRITIS TREATMENT” (Université de Liège, priority 2014, published 2017).
Square brackets hold non-standard residues; d marks the D form. Ends that are not written are not given here. Tyr(3-NO2) = N[C@@H](Cc1ccc(O)c([N+](=O)[O-])c1)C(=O)O

How the values were obtained:
NF-κB = NF-κB activation, Western blotting of phospho-p65 and phospho-IκBα; type: cell-based; conditions: oxidative stress inhibitors: apocynin 0.2 mM and diphenyleneiodonium 6.35 10^−2 mM
Experimental: Western blotting. Cells were collected at 4° C. and lysed on ice in 50 μl of buffer (25 mM Hepes, 150 mM NaCl, 0.5% Triton X-100, 10% glycerol, and 1 mM dithiothreitol) containing protease and phosphatase inhibitors. After incubation at 4° C. for 30 minutes, lysates were then centrifugated at 14,000 g for 30 minutes at 4° C. to remove insoluble debris. Protein concentrations were determined using BCA assay. Total protein extracts (10 μg) were fractioned by electrophoresis on a polyacrylamide gel (10%) and transferred onto a PVDF membrane. Membrane were blocked for 1 h in TBS-Tween containing 2% bovine serum albumin (phosphor-NF-κB p65 and phospho-IκBα). Membranes were then incubated overnight at 4° C. with primary antibodies. Anti-rabbit phospho-NF-κB p65 (1:1000 dilution), anti-rabbit phospho-IκBα (1:1000 dilution) were used. Horse-radish peroxidase (HRP)-linked anti-rabbit IgG antibody (1:2000 dilution) was used as secondary antibody.

TLR-4 = target: T1, TLR-4 (Homo sapiens, UniProt O00206); assay: Inhibition of TLR-4 receptor: IL-8 expression by osteoarthritic synoviocytes; type: cell-based; conditions: 1 hour pre-treatment with CLI-095 (500 nM, 1 and 2.5 μM), then 24 hours Coll2-1 at 4.5 nmol
T1 construct: endogenous in cells; host or cells: osteoarthritic synoviocytes (synovial fibroblast cells)
T1 sequence (O00206 24-839): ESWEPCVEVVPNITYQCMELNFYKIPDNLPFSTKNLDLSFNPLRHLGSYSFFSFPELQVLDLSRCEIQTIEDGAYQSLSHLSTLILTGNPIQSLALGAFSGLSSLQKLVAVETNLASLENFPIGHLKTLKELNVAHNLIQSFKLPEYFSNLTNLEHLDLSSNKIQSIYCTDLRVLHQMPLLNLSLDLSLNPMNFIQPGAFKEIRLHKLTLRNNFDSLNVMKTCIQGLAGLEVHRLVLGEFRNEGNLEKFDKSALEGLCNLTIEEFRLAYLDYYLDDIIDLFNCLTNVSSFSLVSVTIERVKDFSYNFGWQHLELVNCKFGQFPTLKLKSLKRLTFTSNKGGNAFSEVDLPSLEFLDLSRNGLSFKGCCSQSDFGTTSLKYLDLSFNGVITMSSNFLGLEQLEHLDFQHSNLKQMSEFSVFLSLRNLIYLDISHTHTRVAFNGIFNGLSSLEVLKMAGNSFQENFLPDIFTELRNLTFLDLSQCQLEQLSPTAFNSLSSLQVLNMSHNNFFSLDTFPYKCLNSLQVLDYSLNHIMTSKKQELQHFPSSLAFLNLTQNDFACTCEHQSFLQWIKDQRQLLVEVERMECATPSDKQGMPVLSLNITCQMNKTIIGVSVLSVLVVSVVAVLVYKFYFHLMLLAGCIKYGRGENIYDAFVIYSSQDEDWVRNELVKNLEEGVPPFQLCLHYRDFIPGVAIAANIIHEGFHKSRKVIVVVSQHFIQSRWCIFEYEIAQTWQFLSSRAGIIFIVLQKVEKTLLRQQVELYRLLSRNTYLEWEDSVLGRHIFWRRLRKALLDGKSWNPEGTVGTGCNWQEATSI
From the text: (§1) 1.4 RNA extraction and Real Time Reverse Transcriptase-Polymerase Chain Reaction (RT PCR). Total RNA were extracted using the RNeasy Mini Kit (Qiagen, Netherlands) and were reverse transcribed with SuperScript III Reverse Transcriptase (Invitrogen, Belgium) according to the manufacturer's instructions. The cDNAs were quantified by real-time quantitative PCR using the Rotor Gene instrument (Qiagen, Venlo, Netherlands) and the SYBR Premix Ex Taq kit (Takara, Verviers, Belgium). The level of gene expression was determined by interpolation with a standard curve. To standardize mRNA levels, HPRT, a house keeping gene, was amplified as an internal control. The oligonucleotide primers sequences were as follow: HPRT forward, 5′-[…]-3′ (SEQ ID NO: 2); HPRT reverse, 5′-TGCCTGACCAAGGAAAGC-3′ (SEQ ID NO: 3); TSP-1 forward, 5′-CAGACCGCATTGGAGATAC-3′ (SEQ ID NO: 4); TSP-1 reverse, 5′-[…]-3′ (SEQ ID NO: 5); VEGF forward, 5′-TGCCTTGCTGCTCTAC-3′ (SEQ ID NO: 6); VEGF reverse, 5′-CACACAGGATGGCTTGAA-3′ (SEQ ID NO: 7); IL-6 forward, 5′-AAACAAATTCGGTACATCCTCG-3′ (SEQ ID NO: 8); IL-6 reverse, 5′-CCA GGC AAG TCT CCT CAT-3′ (SEQ ID NO: 9); IL-8 forward, 5′-GGAACCATCTCACTGTGTGTAA-3′ (SEQ ID NO: 10); IL-8 reverse, 5′-TGGAAAGGTTTGGAGTATGTCT-3′ (SEQ ID NO: 11).
Inhibition of TLR-4 receptor. […]

IL-6 = IL-6 mRNA expression by Real Time PCR in OA synovial fibroblast cells; type: cell-based, human; conditions: increasing concentrations of peptide, 24 hours
Experimental: (§2) 1.3 Treatment of synovial fibroblast cells. Cells were seeded into a six-well plate at the density of 2×10^5 cells/well in 2 ml of CM. When the cells reached confluence, the CM was replaced with 1% serum medium for 24 h to keep the cells quiescent. Cells were incubated for 24 hours with or without peptides Coll2-1 (^108HRGYPGLDG^116; 0.45 and 4.5 nmol) or Coll2-1NO2 (^108HRGYPGLDG-NO2^116; 4 and 40 pmol) at a range of concentrations found in the blood of osteoarthritic patients.
(§3) 1.4 RNA extraction and Real Time Reverse Transcriptase-Polymerase Chain Reaction (RT PCR). Total RNA were extracted using the RNeasy Mini Kit (Qiagen, Netherlands) and were reverse transcribed with SuperScript III Reverse Transcriptase (Invitrogen, Belgium) according to the manufacturer's instructions. The cDNAs were quantified by real-time quantitative PCR using the Rotor Gene instrument (Qiagen, Venlo, Netherlands) and the SYBR Premix Ex Taq kit (Takara, Verviers, Belgium). The level of gene expression was determined by interpolation with a standard curve. To standardize mRNA levels, HPRT, a house keeping gene, was amplified as an internal control. […]

TSP1 = TSP1 mRNA expression by Real Time PCR in OA synovial fibroblast cells; type: cell-based, human; conditions: 24 hours
Experimental: as §2, §1

[1] = system: OA synovial fibroblast cells; assay: NO production in OA synovial fibroblast cells; type: cell-based, human; conditions: Coll2-1 (0.45 and 4.5 nmol) or Coll2-1NO2 (4 and 40 pmol), 24 hours
Experimental: (§4) 1.1 Patients. Synovial tissue samples were obtained from 10 patients (8 women, 2 man; mean age 70 +/−6 years) with osteoarthritis (OA) of the knee at the time of total knee joint replacement surgery. All the subjects provided their informed consent.
(§5) 1.2 Isolation and culture of synovial cells. Synovium biopsies were digested is with collagenase from Clostridium histolyticum, Type IA (1 mg/ml) (Sigma-Aldrich, Saint-Louis, USA) and 0.25% trypsin (Sigma Aldrich, Saint Louis, USA) with 0.68 mM EDTA in Tris buffer 0.1M, pH 7.4 in complete medium (CM) (DMEM (Dulbecco's Modified Eagle's Medium) Low Glucose supplemented with 10 mM HEPES, 100 U/ml penicillin, 100 μg/ml streptomycin, 2 mM glutamine and 10% fetal calf serum (Lonza, Verviers, Belgium)) for 1 hour at 37° C. The cells suspensions were passed through a 70-μm filter to remove any undigested tissue. The filtered cells suspensions were then collected by centrifugation at 800 g and were cultured in culture flasks. After 24 hours, medium was changed to eliminate non adherent cells. Synovial fibroblasts cells (SFC) were used after three passages. […]
1.7 NO production. Nitric oxide production was evaluated using a DAF2-DA fluorescent probe (Molecular Probes, Leiden, The Netherlands). […] The fluorescence intensity was measured every hour for 6 hours. […] The numbers of adherent cells were measured by cristal violet assay.

VEGF = VEGF mRNA expression by Real Time PCR in OA synovial fibroblast cells; type: cell-based, human; conditions: increasing concentrations: Coll2-1 (0.45 and 4.5 nmol) or Coll2-1NO2 (4 and 40 pmol), 24 hours
Experimental: as §2, §3

[2] = system: OA synovial fibroblast cells; assay: Intracellular H2O2 production in OA synovial fibroblast cells; type: cell-based, human; conditions: 24 hours
Experimental: as §4
1.2 Isolation and culture of synovial cells. Synovium biopsies were digested is with collagenase from Clostridium histolyticum, Type IA (1 mg/ml) (Sigma-Aldrich, Saint-Louis, USA) and 0.25% trypsin (Sigma Aldrich, Saint Louis, USA) with 0.68 mM EDTA in Tris buffer 0.1M, pH 7.4 in complete medium (CM) (DMEM (Dulbecco's Modified Eagle's Medium) Low Glucose supplemented with 10 mM HEPES, 100 U/ml penicillin, 100 μg/ml streptomycin, 2 mM glutamine and 10% fetal calf serum (Lonza, Verviers, Belgium)) for 1 hour at 37° C. The cells suspensions were passed through a 70-μm filter to remove any undigested tissue. The filtered cells suspensions were then collected by centrifugation at 800 g and were cultured in culture flasks. After 24 hours, medium was changed to eliminate non adherent cells. Synovial fibroblasts cells (SFC) were used after three passages.
as §2
1.5 Intracellular H2O2 and O2^∘^− productions. Levels of intracellular superoxide anion (O2^∘^−) and hydrogen peroxide (H2O2) were assessed spectrofluorimetrically by oxidation of specific probes: dihydroethidium (Molecular Probes, Leiden, The Netherlands) and H2DCFH-DA (Molecular Probes, Leiden, The Netherlands) respectively. Synovial cells seeded on 96-well plates (8×10^3 cells per well) were washed once with phosphate-buffered saline and then incubated with 50 μL of phosphate-buffered saline containing either 250 μM dihydroethidium or 200 μM H2DCFH-DA. The fluorescence intensity was measured every hour for 6 hours. The levels of O2^∘^− or H2O2 are expressed in arbitrary unit/living cell. The numbers of adherent cells were measured by crystal violet assay.

[3] = system: OA synovial fibroblast cells; assay: Intracellular GSH assay in OA synovial fibroblast cells; type: cell-based, human; conditions: Coll2-1NO2 at 4 and 40 pmol, 24 hours
Experimental: as §4, §5
1.6 GSH assay. Levels of intracellular GSH were assessed by monoclorobimane staining. […] The fluorescence intensities were measured at […] using excitation and emission wavelengths of 380 and 485 nm, respectively. The intracellular GSH level was expressed as arbitrary units of fluorescence intensity.

IL-8 = IL-8 mRNA expression by Real Time PCR in OA synovial fibroblast cells; type: cell-based, human; conditions: increasing concentrations: Coll2-1 (0.45 and 4.5 nmol) or Coll2-1NO2 (4 and 40 pmol), 24 hours
Experimental: as §2, §1

## c1ccc2c(c1)[I+]c1ccccc1-2 [diphenyleneiodonium]
NF-κB
  Coll2-1 induced IκBα degradation: decreased
  Coll2-1 induced phosphorylation and translocation of p65: inhibited

## CCOC(=O)C1=CCCC[C@H]1S(=O)(=O)Nc1ccc(F)cc1Cl [CLI-095]
TLR-4
  IL-8 expression by osteoarthritic synoviocytes in the presence of Coll2-1: decrease

## COc1cc(C(C)=O)ccc1O [apocynin]
NF-κB
  Coll2-1 induced IκBα degradation: decreased
  Coll2-1 induced phosphorylation and translocation of p65: inhibited

## HRGY(NO2)PGLDG (HRG[Tyr(3-NO2)]PGLDG) [Coll2-1NO2, nitrated form of the Coll2-1 peptide]
IL-6
  IL-6 expression: increased
TSP1; Coll2-1NO2 at 40 pmol
  decrease of TSP1 expression, significance: significant
TSP1; increasing concentrations: Coll2-1 (0.45 and 4.5 nmol) or Coll2-1NO2 (4 and 40 pmol)
  TSP1 expression: decreased
[1]
  production of NO (nitric oxide): decreased significantly
VEGF
  VEGF expression: tended to increase
[2]; Coll2-1NO2 at 4 pmol
  intracellular production of H2O2: significantly increased
[2]; Coll2-1NO2 at 40 pmol
  intracellular production of H2O2: significantly increased
[3]
  intracellular level of GSH: significant decrease
IL-8
  IL-8 expression: increased
